Experimental findings from publication PMC3478282, “Probing the Putative Active Site of YjdL: An Unusual Proton-Coupled Oligopeptide Transporter from E. coli” (PLoS ONE, 2012) are described below.

Assay type in all cases: cell-based, E. coli
One test has as its target T1, YdgR Tyr71Phe (Escherichia coli, UniProt P77304, Y71F).
T1 construct: host or cells: E. coli BL21(DE3)pLysS
Kind of test: β-Ala-Lys(AMCA) uptake and inhibition assay, YdgR Tyr71Phe. How it is done: (§1) Plasmids were transformed into E. coli BL21(DE3)pLysS cells by heat shock and transformants were selected on agar plates containing 100 µg/mL ampicillin and 34 µg/mL chloramphenicol. Single transformants were inoculated into 2 mL LB-media with antibiotics as above and grown overnight. The cultures were diluted 1∶50 in 5 mL LB-media with antibiotics as above, and at an OD600 of 0.5–0.8 protein expression was induced by the addition of 1 mM isopropyl β-D-1-thiogalactopyranoside (IPTG). The cells were harvested after three hours of induction by centrifugation and resuspended in uptake buffer (50 mM MES pH 6.5, 140 mM NaCl, 5.4 mM KCl, 1.8 mM CaCl2, 0.8 mM MgSO4, and 5 mM glucose).
(§2) Uptake assays were performed as previously described, [20]. In a final assay volume of 100 µL; 0.2 mM β-Ala-Lys-N-7-amino-4-methylcoumarin-3-acetic acid (β-Ala-Lys(AMCA), Biotrend) (10 µL) and various concentrations of ligands (purchased from Bachem or Sigma-Aldrich) or uptake buffer (50 µL) were incubated with bacterial cell suspension (OD600 = 10, 40 µL) at 37°C. […] Finally the cell pellet was resuspended in 100 µL uptake buffer, and the uptake was quantified by fluorescence measurements (excitation at 340 nm and emission at 460 nm) on a Safire 2 fluorimeter. Non-specific uptake was measured as described above on IPTG-induced E. coli BL21(DE3)pLysS cells harboring the empty pTTQ18 vector. […]

The target in the next test is T2, YdgR Tyr38Phe (Escherichia coli, UniProt P77304, Y38F).
T2 construct: host or cells: E. coli BL21(DE3)pLysS
T2 sequence (P77304 whole entry Y38F): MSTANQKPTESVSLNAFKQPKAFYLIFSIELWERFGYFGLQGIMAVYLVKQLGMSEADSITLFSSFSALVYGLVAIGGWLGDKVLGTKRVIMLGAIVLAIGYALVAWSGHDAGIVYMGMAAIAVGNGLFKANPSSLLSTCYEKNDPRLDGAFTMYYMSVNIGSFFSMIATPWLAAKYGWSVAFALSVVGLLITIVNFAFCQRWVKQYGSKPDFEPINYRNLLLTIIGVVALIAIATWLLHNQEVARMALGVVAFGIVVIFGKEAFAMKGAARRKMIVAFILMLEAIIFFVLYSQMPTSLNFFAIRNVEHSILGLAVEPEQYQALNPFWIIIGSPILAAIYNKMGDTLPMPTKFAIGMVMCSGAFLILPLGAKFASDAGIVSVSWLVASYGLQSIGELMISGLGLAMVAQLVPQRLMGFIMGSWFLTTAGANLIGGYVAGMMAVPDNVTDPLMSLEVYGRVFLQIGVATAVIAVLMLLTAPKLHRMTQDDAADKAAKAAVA
The experiment in a line: β-Ala-Lys(AMCA) uptake and inhibition assay, YdgR Tyr38Phe. How it is done:
as §1, §2

In the next test the target is T3, YjdL Ala281Phe (Escherichia coli, UniProt P39276, A281F).
T3 construct: host or cells: E. coli BL21(DE3)pLysS
T3 sequence (P39276 1-485 A281F): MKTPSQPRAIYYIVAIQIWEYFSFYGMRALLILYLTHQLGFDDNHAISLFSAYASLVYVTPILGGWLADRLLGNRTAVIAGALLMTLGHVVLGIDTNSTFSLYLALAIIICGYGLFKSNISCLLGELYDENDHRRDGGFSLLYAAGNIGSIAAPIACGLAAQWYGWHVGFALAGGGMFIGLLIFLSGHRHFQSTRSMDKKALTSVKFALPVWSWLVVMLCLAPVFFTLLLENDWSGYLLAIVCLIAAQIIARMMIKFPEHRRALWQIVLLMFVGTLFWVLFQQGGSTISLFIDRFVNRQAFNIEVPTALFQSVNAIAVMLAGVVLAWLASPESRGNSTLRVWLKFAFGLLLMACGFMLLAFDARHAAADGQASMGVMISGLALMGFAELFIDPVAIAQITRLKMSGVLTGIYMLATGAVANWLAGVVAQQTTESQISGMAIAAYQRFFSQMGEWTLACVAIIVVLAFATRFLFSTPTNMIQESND
The experiment in a line: β-Ala-Lys(AMCA) uptake and inhibition assay, YjdL Ala281Phe. Conditions: for IC50: 0.2 mM β-Ala-Lys(AMCA), 5 min incubation, pH 6.5, ±SEM, n≥3. How it is done:
as §1
(§3) Uptake assays were performed as previously described, [20]. In a final assay volume of 100 µL; 0.2 mM β-Ala-Lys-N-7-amino-4-methylcoumarin-3-acetic acid (β-Ala-Lys(AMCA), Biotrend) (10 µL) and various concentrations of ligands (purchased from Bachem or Sigma-Aldrich) or uptake buffer (50 µL) were incubated with bacterial cell suspension (OD600 = 10, 40 µL) at 37°C. After 5 min, the uptake was stopped by addition of 500 µL ice-cold uptake buffer followed by immediate centrifugation and washing twice in ice-cold uptake buffer. Finally the cell pellet was resuspended in 100 µL uptake buffer, and the uptake was quantified by fluorescence measurements (excitation at 340 nm and emission at 460 nm) on a Safire 2 fluorimeter. Non-specific uptake was measured as described above on IPTG-induced E. coli BL21(DE3)pLysS cells harboring the empty pTTQ18 vector. All uptake assay experiments were reproduced at least three times independently and data analyses were performed using GraphPad Prism ver. 5.

The target in a further test is T4, YdgR Tyr292Ala (Escherichia coli, UniProt P77304, Y292A).
T4 construct: host or cells: E. coli BL21(DE3)pLysS
T4 sequence (P77304 whole entry Y292A): as the sequence (P77304 whole entry Y38F) above, with F38Y, Y292A counted along it
The experiment in a line: β-Ala-Lys(AMCA) uptake and inhibition assay, YdgR Tyr292Ala. How it is done:
as §1, §2

Another test deals with T5, YjdL Tyr25Phe (Escherichia coli, UniProt P39276, Y25F).
T5 construct: expressed in transfected cells; host or cells: E. coli BL21(DE3)pLysS, pTTQ18-yjdL mutant (QuikChange)
T5 sequence (P39276 1-485 Y25F): T3 sequence (P39276 1-485 A281F) with Y25F, F281A
The experiment in a line: β-Ala-Lys(AMCA) uptake and inhibition assay, YjdL Tyr25Phe. The conditions noted are these: for IC50: 0.2 mM β-Ala-Lys(AMCA), 5 min incubation, pH 6.5, ±SEM, n≥3. How it is done: as §1, §3

Another test has as its target T6, WT-YjdL (Escherichia coli, UniProt P39276).
T6 construct: expressed in transfected cells; host or cells: E. coli BL21(DE3)pLysS, pTTQ18-yjdL, IPTG-induced
T6 sequence (P39276 1-485): T3 sequence (P39276 1-485 A281F) with F281A
The experiment in a line: cell-based. The conditions noted are these: for IC50: IC50 (inhibition of β-Ala-Lys(AMCA) uptake). How it is done: Plasmids were transformed into E. coli BL21(DE3)pLysS cells by heat shock and transformants were selected on agar plates containing 100 µg/mL ampicillin and 34 µg/mL chloramphenicol. Single transformants were inoculated into 2 mL LB-media with antibiotics as above and grown overnight. The cultures were diluted 1∶50 in 5 mL LB-media with antibiotics as above, and at an OD600 of 0.5–0.8 protein expression was induced by the addition of 1 mM isopropyl β-D-1-thiogalactopyranoside (IPTG). […]
as §3

[1] abbreviates: 0.2 mM β-Ala-Lys(AMCA), 5 min incubation, pH 6.5, ±SEM, n≥3.
[2] abbreviates: 0.2 mM, 5 min, pH 6.5 (Figure 4).
[3] abbreviates: 0.2 mM, 5 min, pH 6.5 (Figure 3).

Residue numbers refer to the chain shown, from its start. Residues, ends and D or L forms follow the SMILES beside them.

T1 sequence (P77304 whole entry Y71F): as the sequence (P77304 whole entry Y38F) above, with F38Y, Y71F counted along it

Usually IC50 stands for the concentration that inhibits the measured activity by half. `C[C@H](N)C(=O)N[C@@H](C)C(=O)O` [Ala-Ala] (H-Ala-Ala-OH): the IC50 at YdgR Tyr71Phe (setting [1]) is 0.37 ± 0.03 mM; on YdgR Tyr38Phe (0.5 mM β-Ala-Lys(AMCA), 15 min incubation, pH 6.5, ±SEM, n≥3, read-out: IC50 (inhibition of β-Ala-Lys(AMCA) uptake), YdgR Tyr38Phe b), 0.92 ± 0.06 mM; at YjdL Ala281Phe, over 50 mM; against YdgR Tyr292Ala (setting [1]) it was 0.59 ± 0.05 mM; against YjdL Tyr25Phe, over 50 mM; against WT-YjdL (WT-YjdL a) it was 2.8 ± 0.6 mM. This molecule also returned an IC50 on WT-YjdL (WT-YjdL b) of 2.2 ± 0.1 mM. Besides, the “IC50 at pH 6.5 (50 mM MES) relative to previous studies at pH 7.4 (25 mM Tris/HEPES), WT-YjdL” value against WT-YjdL is “eight”.

Take “β-Ala-Lys-N-7-amino-4-methylcoumarin-3-acetic acid [β-Ala-Lys(AMCA)]”: at YdgR Tyr71Phe (setting [2]), the “β-Ala-Lys(AMCA) uptake level, YdgR Tyr71Phe” value was found to be 27%. Moreover, at YdgR Tyr38Phe (setting [2]), the “β-Ala-Lys(AMCA) uptake level, YdgR Tyr38Phe” value was found to be 10%. Also, the “increase of β-Ala-Lys(AMCA) uptake compared to WT-YjdL, Ala281Phe” value on YjdL Ala281Phe (setting [3]) is reported as about 3 fold. Besides, the “increase of β-Ala-Lys(AMCA) uptake, YdgR Tyr292Ala” value on YdgR Tyr292Ala (setting [2]) is about 4 fold. Moreover, on YjdL Tyr25Phe (setting [3]), the “β-Ala-Lys(AMCA) uptake level, YjdL Tyr25Phe” value is 27%. This molecule also returned a Kt at WT-YjdL (WT YjdL, data not shown) of about 5 mM.

In the case of `C[C@H](NC(=O)[C@@H](N)Cc1ccc(O)cc1)C(=O)O` [Tyr-Ala], the concentration for half-maximal inhibition (IC50) against YjdL Ala281Phe is 33.2 ± 3.4 mM; on YjdL Tyr25Phe, 33.7 ± 3.9 mM; on WT-YjdL (WT-YjdL a), 2.4 ± 0.4 mM; against WT-YjdL (WT-YjdL b), 2.4 ± 0.2 mM. In addition, the half-maximal inhibitory concentration (IC50) at pH 6.5 (50 mM MES) relative to previous studies at pH 7.4 (25 mM Tris/HEPES), WT-YjdL against WT-YjdL is listed as “same”.

As for `C[C@H](N)C(=O)N[C@@H](CCCCN)C(=O)O` [Ala-Lys] (H-Ala-Lys-OH), the half-inhibitory concentration (IC50) at YjdL Ala281Phe worked out at 0.26 ± 0.02 mM; against YjdL Tyr25Phe, 0.4 ± 0.08 mM; against WT-YjdL (WT-YjdL a), 0.28 ± 0.01 mM; on WT-YjdL (WT-YjdL b), 0.89 ± 0.16 mM.
